Laboratory results as given in patent publication US6525001B1, “Substituted pyrimidine and pyridine herbicides” (Mid-American Commercialization Corporation, priority 1997, dated 2003).

Key:
Format in all cases: in vivo
Set-up in all cases: key: 0 is no effect; 10 is complete control
[1] = test system: bedstraw (Galium aparine); assay: Test B pre-/postemergence; details: for Plant response rating, Bedstraw: Postemergence; for Bedstraw plant response rating: Preemergence
Method in brief: (§1)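 Seeds were planted and sprayed preemergence, while plants at 2 to 18 cm (1- to 4-leaf stage) were sprayed postemergence at the same time, with test chemical in a non-phytotoxic solvent mixture containing surfactant. After twelve to sixteen days in a greenhouse, injury was rated visually against untreated controls on a 0–10 scale.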

[2] = test system: blackgrass (Alopecurus myosuroides); assay: Test B pre-/postemergence; details: for Blackgrass plant response rating: Preemergence
Method in brief: as §1

[3] = test system: broadleaf signalgrass (Brachiaria decumbens); assay: Test B pre-/postemergence; details: for B. signalgrass plant response rating: Preemergence
Method in brief: as §1

[4] = test system: cocklebur (Xanthium strumarium); assay: Test B pre-/postemergence; details: for Plant response rating, Cocklebur: Postemergence
Method in brief: as §1

[5] = test system: corn (Zea mays); assay: Test B pre-/postemergence; details: for Corn plant response rating: Preemergence
Method in brief: as §1

[6] = test system: crabgrass (Digitaria sanguinalis); assay: Test B pre-/postemergence; details: for Crabgrass plant response rating: Preemergence
Method in brief: as §1

[7] = test system: giant foxtail (Setaria faberii); assay: Test B pre-/postemergence
Method in brief: as §1

[8] = test system: momingglory (Ipomoea hederacea); assay: Test B pre-/postemergence
Method in brief: as §1

[9] = test system: pigweed (Amaranthus retroflexus); assay: Test B pre-/postemergence
Method in brief: as §1

[10] = test system: purple nutsedge (Cyperus rotundus); assay: Test B pre-/postemergence; details: for Nutsedge plant response rating: Preemergence
Method in brief: as §1

[11] = test system: rape (Brassica napus); assay: Test B pre-/postemergence
Method in brief: as §1

[12] = test system: soybean (Glycine max); assay: Test B pre-/postemergence
Method in brief: as §1

[13] = test system: sugar beet (Beta vulgaris); assay: Test B pre-/postemergence
Method in brief: as §1

[14] = test system: velvetleaf (Abutilon theophrasti); assay: Test B pre-/postemergence
Method in brief: as §1

[15] = test system: wheat (Triticum aestivum); assay: Test B pre-/postemergence
Method in brief: as §1

[16] = test system: wild oat (Avena fatua); assay: Test B pre-/postemergence
Method in brief: as §1

[17] = test system: bamyardgrass (Echinochloa crus-galli); assay: Test B flood test
Method in brief: (§2)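 Plants were grown to the 2-leaf stage before treatment with test chemical, then held in a greenhouse for twelve to sixteen days. Injury was visually rated against untreated controls on a 0–10 scale, where 0 is no effect and 10 is complete control.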

[18] = test system: duck salad (Heteranthera limosa); assay: Test B flood test
Method in brief: as §2

[19] = test system: rice (Oryza sativa); assay: Test B flood test
Method in brief: as §2

[20] = test system: smallflower flatsedge (Cyperus difformis); assay: Test B flood test
Method in brief: as §2

[21] = Rate 250 g/ha, Postemergence (so in the source)
[22] = Rate 62 g/ha, Postemergence (flood test)
[23] = Rate 125 g/ha, Postemergence, flood test
[24] = Rate 250 g/ha, Postemergence (flood test species)
[25] = Rate 125 g/ha, Postemergence section (flood test species)

Cc1cnc(-c2ccc(Cl)c(Cl)c2)nc1Cc1cccc(C(F)(F)F)c1 [Compound 27]
Plant response rating, Bedstraw ([1]; Rate 62 g/ha): 8
Bedstraw plant response rating ([1]; Rate 62 g/ha): 0
Plant response rating, Bedstraw ([1]; Rate 125 g/ha): 9
Bedstraw plant response rating ([1]; Rate 125 g/ha): 0
Plant response rating, Bedstraw ([1]; Rate 250 g/ha): 9
Plant response rating, Blackgrass ([2]; Rate 62 g/ha, Postemergence): 4
Blackgrass plant response rating ([2]; Rate 62 g/ha): 0
Plant response rating, Blackgrass ([2]; Rate 125 g/ha, Postemergence): 4
Blackgrass plant response rating ([2]; Rate 125 g/ha): 2
Plant response rating, Blackgrass ([2]; Rate 250 g/ha, Postemergence): 5
Plant response rating, Blackgrass [2, 21]: 4
Plant response rating, B. signalgrass ([3]; Rate 62 g/ha, Postemergence): 3
B. signalgrass plant response rating ([3]; Rate 62 g/ha): 0
Plant response rating, B. signalgrass ([3]; Rate 125 g/ha, Postemergence): 5
B. signalgrass plant response rating ([3]; Rate 125 g/ha): 1
Plant response rating, B. signalgrass ([3]; Rate 250 g/ha, Postemergence): 5
Plant response rating, B. signalgrass ([3]; Rate 250 g/ha, Postemergence as printed in head r139 (second section for compounds 26-50)): 3
Plant response rating, Cocklebur ([4]; Rate 62 g/ha): 7
Cocklebur plant response rating ([4]; Rate 62 g/ha, Preemergence): 0
Plant response rating, Cocklebur ([4]; Rate 125 g/ha): 7
Plant response rating, Cocklebur ([4]; Rate 250 g/ha): 9
Plant response rating, Corn ([5]; Rate 62 g/ha, Postemergence): 2
Corn plant response rating ([5]; Rate 62 g/ha): 0
Plant response rating, Corn ([5]; Rate 125 g/ha, Postemergence): 3
Corn plant response rating ([5]; Rate 125 g/ha): 0
Plant response rating, Corn ([5]; Rate 250 g/ha, Postemergence): 3
Plant response rating, Corn [5, 21]: 0
Plant response rating, Crabgrass ([6]; Rate 62 g/ha, Postemergence): 3
Crabgrass plant response rating ([6]; Rate 62 g/ha): 1
Plant response rating, Crabgrass ([6]; Rate 125 g/ha, Postemergence): 4
Crabgrass plant response rating ([6]; Rate 125 g/ha): 2
Plant response rating, Crabgrass ([6]; Rate 250 g/ha, Postemergence): 6
Plant response rating, Crabgrass [6, 21]: 5
Plant response rating, Giant foxtail ([7]; Rate 62 g/ha, Postemergence): 3
Giant foxtail plant response rating ([7]; Rate 62 g/ha, Preemergence): 2
Giant foxtail plant response rating ([7]; Rate 125 g/ha, Postemergence): 4
Giant foxtail plant response rating ([7]; Rate 125 g/ha, Preemergence): 5
Plant response rating, Giant foxtail ([7]; Rate 250 g/ha, Postemergence): 4
Plant response rating, Giant foxtail [7, 21]: 9
Plant response rating, Morningglory ([8]; Rate 62 g/ha, Postemergence): 5
Morningglory plant response rating ([8]; Rate 62 g/ha, Preemergence): 1
Morningglory plant response rating ([8]; Rate 125 g/ha, Postemergence): 8
Morningglory plant response rating ([8]; Rate 125 g/ha, Preemergence): 2
Plant response rating, Morningglory ([8]; Rate 250 g/ha, Postemergence): 8
Plant response rating, Morningglory [8, 21]: 2
Plant response rating, Redroot pigweed ([9]; Rate 62 g/ha, Postemergence): 7
Redroot pigweed plant response rating ([9]; Rate 62 g/ha, Preemergence): 2
Redroot pigweed plant response rating ([9]; Rate 125 g/ha, Postemergence): 9
Redroot pigweed plant response rating ([9]; Rate 125 g/ha, Preemergence): 6
Plant response rating, Redroot pigweed ([9]; Rate 250 g/ha, Postemergence): 10
Plant response rating, Redroot pigweed [9, 21]: 7
Plant response rating, Nutsedge ([10]; Rate 62 g/ha, Postemergence): 2
Nutsedge plant response rating ([10]; Rate 62 g/ha): 0
Nutsedge plant response rating ([10]; Rate 125 g/ha): 0
Plant response rating, Nutsedge [10, 21]: 0
Plant response rating, Rape ([11]; Rate 62 g/ha, Postemergence): 8
Rape plant response rating ([11]; Rate 62 g/ha, Preemergence): 1
Rape plant response rating ([11]; Rate 125 g/ha, Postemergence): 8
Rape plant response rating ([11]; Rate 125 g/ha, Preemergence): 2
Plant response rating, Rape ([11]; Rate 250 g/ha, Postemergence): 9
Plant response rating, Rape [11, 21]: 3
Plant response rating, Soybean ([12]; Rate 62 g/ha, Postemergence): 5
Soybean plant response rating ([12]; Rate 62 g/ha, Preemergence): 0
Soybean plant response rating ([12]; Rate 125 g/ha, Postemergence): 5
Plant response rating, Soybean ([12]; Rate 125 g/ha, Preemergence): 0
Plant response rating, Soybean ([12]; Rate 250 g/ha, Postemergence): 7
Plant response rating, Soybean [12, 21]: 0
Plant response rating, Sugarbeets ([13]; Rate 62 g/ha, Postemergence): 9
Sugarbeets plant response rating ([13]; Rate 62 g/ha, Preemergence): 0
Sugarbeets plant response rating ([13]; Rate 125 g/ha, Postemergence): 9
Plant response rating, Sugarbeets ([13]; Rate 125 g/ha, Preemergence): 1
Plant response rating, Sugarbeets ([13]; Rate 250 g/ha, Postemergence): 10
Plant response rating, Sugarbeets [13, 21]: 8
Plant response rating, Velvetleaf ([14]; Rate 62 g/ha, Postemergence): 5
Velvetleaf plant response rating ([14]; Rate 62 g/ha, Preemergence): 0
Velvetleaf plant response rating ([14]; Rate 125 g/ha, Postemergence): 7
Plant response rating, Velvetleaf ([14]; Rate 125 g/ha, Preemergence): 0
Plant response rating, Velvetleaf ([14]; Rate 250 g/ha, Postemergence): 7
Plant response rating, Velvetleaf [14, 21]: 1
Plant response rating, Wheat ([15]; Rate 62 g/ha, Postemergence): 3
Wheat plant response rating ([15]; Rate 62 g/ha, Preemergence): 0
Wheat plant response rating ([15]; Rate 125 g/ha, Postemergence): 4
Plant response rating, Wheat ([15]; Rate 125 g/ha, Preemergence): 0
Plant response rating, Wheat ([15]; Rate 250 g/ha, Postemergence): 4
Plant response rating, Wheat [15, 21]: 1
Plant response rating, Wild oats ([16]; Rate 62 g/ha, Postemergence): 3
Wild oats plant response rating ([16]; Rate 62 g/ha, Preemergence): 0
Wild oats plant response rating ([16]; Rate 125 g/ha, Postemergence): 4
Plant response rating, Wild oats ([16]; Rate 125 g/ha, Preemergence): 1
Plant response rating, Wild oats ([16]; Rate 250 g/ha, Postemergence): 5
Plant response rating, Wild oats [16, 21]: 3
Plant response rating, Barnyardgrass [17, 22]: 1
Plant response rating, Barnyardgrass [17, 23]: 2
Plant response rating, Barnyardgrass [17, 24]: 3
Plant response rating, Ducksalad [18, 22]: 0
Plant response rating, Ducksalad [18, 23]: 1
Plant response rating, Ducksalad [18, 24]: 2
Plant response rating, Rice [19, 22]: 0
Rice plant response rating [19, 25]: 1
Plant response rating, Rice [19, 24]: 1
Plant response rating, S. Flatsedge [20, 22]: 5
S. Flatsedge plant response rating [20, 25]: 5
Plant response rating, S. Flatsedge [20, 24]: 5
